Assay type in all cases: cell-based, Sprague-Dawley (SD) rats
One assay deals with TNF-α. Nature of the assay: TNF-α ELISA in LPS-treated NSCs. As to conditions: vs only LPS-treated NSCs, IM 3 µM, p<0.05.
The subject of another assay is Bcl-2 protein. Nature of the assay: Bcl-2 protein expression in NSCs by western blot and immunohistochemistry.
In assay [1] the test system is NSCs. Kind of assay: MTT cell viability assay of IM-treated NSCs. As to conditions: 3 µM IM, Day 3, Day 5 and Day 7 cultures, p<0.05. The method, then: All animals used were treated in accordance with the Animal Care and Use Committee guideline at Taipei Veterans General Hospital. The protocol of the present study was also approved by the committee. Adult Sprague-Dawley (SD) rats (8 weeks old, 250 g) were anesthetized with intraperitoneal phenobarbital (Sigma, USA), and the location of their brains was mapped. Then, the brain was surgically separated from the hippocampus region. In brief, tissues from the hippocampus of adult rats were dissociated and incubated in Hank's balanced salt solution (HBSS) containing collagenase (78 units/ml) and hyaluronidase (38 units/ml) for 10 minutes at 37°C. […] Viable cells were counted by trypan blue exclusion and plated as 5000 cells/200 µL per well in 96-well plates (Coming Inc, Acton, MA, USA) with no substrate pretreatment. […]
IM was purchased from Sigma Chem. Co., St Louis, MO, USA. […] The amount of MTT fromazon product was determined using a microplate reader and the absorbance was measured at 560 nm (SpectraMax 250, Molecular Devices, Sunnyvale, CA, USA). […] The activities of caspases 8 and 3 (Medical and Biological Laboratories Co., Ltd., Nagoya, Japan), and the concentration of IL-6, IL-1 and TNF-α (Pharmingen, San Diego, CA, USA) were determined by ELISA kits and quantified by reading at 490 nm (MRX; Dynatech Laboratories, Chantilly, VA, USA). Each individual sample was analyzed in triplicate.

Another assay deals with caspase 8. Kind of assay: Caspase 8 activity ELISA in LPS-treated NSCs. As to conditions: LPS (100 ng/ml) exposure, Day 7, vs LPS-treated NSCs without treatment, p<0.05. A general note: In an ELISA, binding on a coated surface is turned into a signal by an enzyme label.
A further assay has as its system IL-1β. Nature of the assay: IL-1β ELISA in LPS-treated NSCs. As to conditions: vs only LPS-treated NSCs, IM 3 µM, p<0.05.
The test system of assay [2] is NSCs. Nature of the assay: Immunofluorescent assay of serotonin (5-HT)-positive cells in differentiating NSCs. The following applies: Day 7 culture of IM-treated NSCs vs non IM-treated NSCs, p<0.05.

Each structure is given as a SMILES string.

Turning to `CN(C)CCCN1c2ccccc2CCc2ccccc21` [IM, imipramine], the “TNF-α production in the LPS-treated NSCs” value with TNF-α is reported as “effectively reduces”. Besides, the “protein expression level of Bcl-2 in LPS-treated NSCs” value with Bcl-2 protein (3 µM IM vs 1, 2 µM IM-LPS-treated, only LPS-treated and control groups) is “significantly increased”. The “protein levels of Bcl-2 (western blot)” value in the assay with Bcl-2 protein (Day 3 IM-treated NSCs vs Day 3 non-IM-treated NSCs, p<0.05) is reported as “higher”. In addition, the “expression levels of the Bcl-2 protein (western blot)” value in the assay with Bcl-2 protein (Day 7 IM-treated NSCs vs Day 3 or Day 5 IM-treated NSCs, p<0.05) is “significantly increased”. Besides, the “protein expression of Bcl-2 (immunohistochemistry)” value with Bcl-2 protein (Day 7 IM-treated NSCs vs NSCs without the IM treatment) is “significantly increased”. In addition, the “Bcl-2 expression in NSCs” value in the assay with Bcl-2 protein (treatment with IM only or BDNF only) was “can activate Bcl-2 expression”. The “cell survival (MTT assay)” value in the assay on NSCs [1] was “significantly increased”. Also, in the assay with caspase 8, the “apoptotic activities of caspase 8” value is “significantly decreased”. In addition, the “IL-1β production in the LPS-treated NSCs” value in the assay with IL-1β was “effectively reduces”. Further, the “percentages of serotonin (5-HT)-positive cells” value in the assay on NSCs [2] is listed as “significantly increased”.

The values are drawn from patent EP2077092A2, “System and Methods for Screening or Analyzing Targets” (Taipei Veterans General Hospital, priority 2007, dated 2009).
